In patent US12338256B2, “Aza-tetracyclic oxazepine compounds and uses thereof” (Genentech, Inc., priority 2022, dated 2025):

Tests used:
Type in all cases: cell-based
[1] = test system: AsPC-1 (homozygous mutant KRAS G12D human pancreatic cell line); assay: KRAS 3D-Cell Proliferation Assay, AsPC-1 (Example 503); details: Homo sapiens, ASPC1, 168 h, AsPC-1 3D culture, 7 days, CellTiter-Glo 3D; read-out: Prolif AsPC-1 3D ATP IC50
Summary of the method: (§1)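 Cells grown in 3D in ultra-low attachment plates (RPMI-1640 with 10% FBS and 2 mM L-glutamine) received compound dilution series after overnight attachment, at 0.3% DMSO final, for 7 days at 37° C. ATP luminescence (CellTiter-Glo 3D) normalized to DMSO and 1 μM staurosporine; IC50 from 4-parameter Hill fit.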

[2] = test system: HPAC (homozygous mutant KRAS G12D human pancreatic cell line); assay: KRAS 3D-Cell Proliferation Assay, HPAC (Example 503); details: Homo sapiens, HPAC, 168 h, HPAC 3D culture, 7 days, CellTiter-Glo 3D; read-out: Prolif HPAC 3D ATP IC50
Summary of the method: as §1

[3] = test system: H1975 (KRAS wild type human lung adenocarcinoma cell line); assay: KRAS 3D-Cell Proliferation Assay, H1975 (Example 503); details: Homo sapiens, NCI-H1975, 168 h, H1975 3D culture, 7 days, CellTiter-Glo 3D; read-out: Prolif H1975 3D ATP IC50
Summary of the method: as §1

[4] = test system: PC-9 (KRAS wild type human lung adenocarcinoma cell line); assay: KRAS 3D-Cell Proliferation Assay, PC-9 (Example 503); details: 168 h, PC-9 3D culture, 7 days, CellTiter-Glo 3D, read-out: Prolif PC9 3D ATP IC50
Protocol: Example 503: KRAS 3D-Cell Proliferation Assays. Cellular potencies of compounds are assessed by evaluating inhibition of proliferation in 3D cultures of homozygous mutant KRAS G12D human pancreatic cell lines (AsPC-1 and HPAC) as compared to a KRAS wild type human lung adenocarcinoma cell line (PC-9 and/or H1975). Cells are seeded into 384-well black round-bottom, ultra-low attachment assay plates in 50 uL cell growth medium (RPMI-1640 with 10% fetal bovine serum and 2 mM L-glutamine). After overnight incubation at 37° C. and 5% CO2, compounds solubilized in DMSO are added as dilution series to the wells in a total volume of 150 nL (0.3% DMSO final). The cells are incubated for 7 days at 37° C. and 5% CO2. Cell proliferation is quantitated by addition of 40 uL/well of CellTiter-GloÒ 3D (Promega), and the well contents are mixed 20× at high speed using liquid handling automation workstation (Bravo with 384-well head) and centrifuged at 1500 rpm for 2 minutes to eliminate bubbles. This reagent in combination with mechanical disruption releases the cellular ATP to promote activity in a luciferase-based enzyme/substrate chemiluminescent detection system. After a 30-minute incubation under ambient conditions with shaking and an additional 10 minutes without shaking, the luminescence is read on a plate reader (e.g., EnVision [PerkinElmer]). The results are normalized to percent inhibition based on the following control samples: DMSO (0% inhibition) and 1 μM staurosporine (100% inhibition). The normalized luminescence results are plotted against compound concentration, and the data are fit to a 4-parameter Hill equation to determine the IC50 values.

SMILES	IC50 [1] [µM]	IC50 [2] [µM]	IC50 [3] [µM]	IC50 [4] [µM]
Cc1cc(N)c(F)c(-c2nc3c4c(nc(OCC56CCN5CC(F)(F)C6)nc4c2F)N2C[C@H]4CC[C@H](N4)[C@H]2[C@H](C)O3)c1C(F)(F)F (mixture of isomers) [Compound 33, 3-((5S,5aS,6S,9R)-12-((3,3-Difluoro-1-azabicyclo[3.2.0]heptan-5-yl)methoxy)-1-fluoro-5-methyl-5a,6,7,8,9,10-hexahydro-5H-4-oxa-3,10a,11,13,14-pentaaza-6,9-methanonaphtho[1,8-ab]heptalen-2-yl)-2-fluoro-5-methyl-4-(trifluoromethyl)aniline]	0.00372	0.00129	1.85	3.92
C[C@@H]1Oc2nc(-c3cccc(N)c3F)c(F)c3nc(OC[C@@]45CCCN4C[C@H](F)C5)nc(c23)N2C[C@H]3CC[C@H](N3)[C@@H]12 [Compound 12, 2-fluoro-3-((5S,5aS,6S,9R)-1-fluoro-12-(((2R,7aS)-2-fluorotetrahydro-1H-pyrrolizin-7a(5H)-yl)methoxy)-5-methyl-5a,6,7,8,9,10-hexahydro-5H-4-oxa-3,10a,11,13,14-pentaaza-6,9-methanonaphtho[1,8-ab]heptalen-2-yl)aniline]	16.6	–	–	13.9
Cc1cc(-c2nc3c4c(nc(OC[C@@]56CCCN5C[C@H](F)C6)nc4c2F)N2C[C@H]4CC[C@H](N4)[C@H]2[C@H](C)O3)cc(N)c1F [Compound 13, 2-fluoro-5-((5S,5aS,6S,9R)-1-fluoro-12-(((2R,7aS)-2-fluorotetrahydro-1H-pyrrolizin-7a(5H)-yl)methoxy)-5-methyl-5a,6,7,8,9,10-hexahydro-5H-4-oxa-3,10a,11,13,14-pentaaza-6,9-methanonaphtho[1,8-ab]heptalen-2-yl)-3-methylaniline]	1.87	–	–	3.53
C[C@@H]1Oc2nc(-c3cc(N)c(F)c(F)c3C(F)(F)F)c(F)c3nc(OC[C@@]45CCCN4C[C@H](F)C5)nc(c23)N2C[C@H]3CC[C@H](N3)[C@@H]12 [Compound 15, 2,3-difluoro-5-((5S,5aS,6S,9R)-1-fluoro-12-(((2R,7aS)-2-fluorotetrahydro-1H-pyrrolizin-7a(5H)-yl)methoxy)-5-methyl-5a,6,7,8,9,10-hexahydro-5H-4-oxa-3,10a,11,13,14-pentaaza-6,9-methanonaphtho[1,8-ab]heptalen-2-yl)-4-(trifluoromethyl)aniline]	0.00157	–	–	2.9
Cc1c(F)c(N)cc(-c2nc3c4c(nc(OC[C@@]56CCCN5C[C@H](OCc5ccc(-c7ccccc7C#N)cc5)C6)nc4c2F)N2C[C@H]4CC[C@H](N4)[C@H]2[C@H](C)O3)c1C(F)(F)F [Compound 32, 4′-((((2R,7aS)-7a-((((5S,5aS,6S,9R)-2-(5-amino-4-fluoro-3-methyl-2-(trifluoromethyl)phenyl)-1-fluoro-5-methyl-5a,6,7,8,9,10-hexahydro-5H-4-oxa-3,10a,11,13,14-pentaaza-6,9-methanonaphtho[1,8-ab]heptalen-12-yl)oxy)methyl)hexahydro-1H-pyrrolizin-2-yl)oxy)methyl)-[1,1′-biphenyl]-2-carbonitrile]	0.00338	–	–	0.821
C[C@@H]1Oc2nc(-c3nc(N)cc4ccccc34)c(F)c3nc(OC[C@@]45CCCN4C[C@H](F)C5)nc(c23)N2C[C@H]3CC[C@H](N3)[C@@H]12 [Compound 41, 1-((5S,5aS,6S,9R)-1-fluoro-12-(((2R,7aS)-2-fluorotetrahydro-1H-pyrrolizin-7a(5H)-yl)methoxy)-5-methyl-5a,6,7,8,9,10-hexahydro-5H-4-oxa-3,10a,11,13,14-pentaaza-6,9-methanonaphtho[1,8-ab]heptalen-2-yl)isoquinolin-3-amine]	0.98	–	–	≥ 20
Cc1cc(N)nc(-c2nc3c4c(nc(OC[C@@]56CCCN5CC5(CC5(F)F)C6)nc4c2F)N2C[C@H]4CC[C@H](N4)[C@H]2CO3)c1C(F)(F)F (stereo partly drawn) [Compound 42, 6-((5aS,6S,9R)-12-(((7a′S)-2,2-difluorodihydro-1′H,3′H-spiro[cyclopropane-1,2′-pyrrolizin]-7a′(5′H)-yl)methoxy)-1-fluoro-5a,6,7,8,9,10-hexahydro-5H-4-oxa-3,10a,11,13,14-pentaaza[6,9]methanonaphtho[1,8-ab]heptalen-2-yl)-4-methyl-5-(trifluoromethyl)pyridin-2-amine]	0.122	–	–	7.04
Cc1cc(N)nc(-c2nc3c4c(nc(OC[C@@]56CCCN5C[C@H](F)C6)nc4c2F)N2C[C@H]4CC[C@H](N4)[C@H]2CO3)c1C(F)(F)F [Compound 44, 6-((5aS,6S,9R)-1-fluoro-12-(((2R,7aS)-2-fluorotetrahydro-1H-pyrrolizin-7a(5H)-yl)methoxy)-5a,6,7,8,9,10-hexahydro-5H-4-oxa-3,10a,11,13,14-pentaaza-6,9-methanonaphtho[1,8-ab]heptalen-2-yl)-4-methyl-5-(trifluoromethyl)pyridin-2-amine]	0.337	–	–	≥ 20
C#Cc1c(F)ccc2cccc(-c3nc4c5c(ncnc5c3F)N3C[C@H]5CC[C@H](N5)[C@H]3[C@H](C)O4)c12 [Compound 56, (5S,5aS,6S,9R)-2-(8-ethynyl-7-fluoronaphthalen-1-yl)-1-fluoro-5-methyl-5a,6,7,8,9,10-hexahydro-5H-4-oxa-3,10a,11,13,14-pentaaza-6,9-methanonaphtho[1,8-ab]heptalene]	5.74	–	–	≥ 20
C[C@@H]1Oc2nc(-c3cc(N)c(F)cc3C(F)(F)F)c(F)c3nc(OC[C@]45CCN4CC(F)(F)C5)nc(c23)N2C[C@H]3CC[C@H](N3)[C@@H]12 [Compound 71, 5-((5S,5aS,6S,9R)-12-(((R)-3,3-Difluoro-1-azabicyclo[3.2.0]heptan-5-yl)methoxy)-1-fluoro-5-methyl-5a,6,7,8,9,10-hexahydro-5H-4-oxa-3,10a,11,13,14-pentaaza-6,9-methanonaphtho[1,8-ab]heptalen-2-yl)-2-fluoro-4-(trifluoromethyl)aniline]	0.132	–	–	≥ 20
C[C@@H]1Oc2nc(-c3cnccc3C(F)(F)F)c(F)c3nc(OC[C@]45CCN4CC(F)(F)C5)nc(c23)N2C[C@H]3CC[C@H](N3)[C@@H]12 [Compound 78, (5S,5aS,6S,9R)-12-(((R)-3,3-Difluoro-1-azabicyclo[3.2.0]heptan-5-yl)methoxy)-1-fluoro-5-methyl-2-(4-(trifluoromethyl)pyridin-3-yl)-5a,6,7,8,9,10-hexahydro-5H-4-oxa-3,10a,11,13,14-pentaaza-6,9-methanonaphtho[1,8-ab]heptalene]	15.9	–	–	≥ 20
C[C@@H]1Oc2nc(-c3nc(N)c(F)cc3C(F)(F)F)c(F)c3nc(OC[C@@]45CCCN4C[C@H](F)C5)nc(c23)N2C[C@H]3CC[C@H](N3)[C@@H]12 [Compound 84, 3-Fluoro-6-((5S,5aS,6S,9R)-1-fluoro-12-(((2R,7aS)-2-fluorotetrahydro-1H-pyrrolizin-7a(5H)-yl)methoxy)-5-methyl-5a,6,7,8,9,10-hexahydro-5H-4-oxa-3,10a,11,13,14-pentaaza-6,9-methanonaphtho[1,8-ab]heptalen-2-yl)-5-(trifluoromethyl)pyridin-2-amine]	1.16	–	–	≥ 20
C[C@@H]1Oc2nc(-c3nc(N)ccc3C(F)(F)F)c(F)c3nc(OC[C@@]45CCCN4C[C@H](F)C5)nc(c23)N2C[C@H]3CC[C@H](N3)[C@@H]12 [Compound 85, 6-((5S,5aS,6S,9R)-1-fluoro-12-(((2R,7aS)-2-fluorotetrahydro-1H-pyrrolizin-7a(5H)-yl)methoxy)-5-methyl-5a,6,7,8,9,10-hexahydro-5H-4-oxa-3,10a,11,13,14-pentaaza-6,9-methanonaphtho[1,8-ab]heptalen-2-yl)-5-(trifluoromethyl)pyridin-2-amine]	0.975	–	–	≥ 20
Cc1ccnc(-c2nc3c4c(nc(OC[C@]56CCN5CC(F)(F)C6)nc4c2F)N2C[C@H]4CC[C@H](N4)[C@H]2[C@H](C)O3)c1C(F)(F)F [Compound 88, (5S,5aS,6S,9R)-12-(((R)-3,3-Difluoro-1-azabicyclo[3.2.0]heptan-5-yl)methoxy)-1-fluoro-5-methyl-2-(4-methyl-3-(trifluoromethyl)pyridin-2-yl)-5a,6,7,8,9,10-hexahydro-5H-4-oxa-3,10a,11,13,14-pentaaza-6,9-methanonaphtho[1,8-ab]heptalene]	≥ 20	–	–	≥ 20
